Values after ≈ are worked out from the molar mass of the structure shown.
Experiments:
[1] = test system: S. aureus (MRSA) -400; experiment: Anti-bacterial activity test 1: minimum growth inhibiting concentration (MIC); format: cell-based; settings: Staphylococcus aureus, strain -400 (PRC series), read-out: Anti-bacterial activity against MRSA MIC
Description: (§1) Minimum growth inhibiting concentration (MIC) of the compound represented by the general formula (I) was determined against some typical MRSA strains.

[2] = test system: S. aureus (MRSA) -390; experiment: as above; format: cell-based; settings: Staphylococcus aureus, strain -390 (PRC series), read-out: Anti-bacterial activity against MRSA MIC
Description: as §1

[3] = test system: S. aureus (MRSA) -381; experiment: as above; format: cell-based; settings: Staphylococcus aureus, strain -381 (PRC series), read-out: Anti-bacterial activity against MRSA MIC
Description: as §1

[4] = test system: S. aureus (MRSA) -395; experiment: as above; format: cell-based; settings: Staphylococcus aureus, strain -395 (PRC series), read-out: Anti-bacterial activity against MRSA MIC
Description: as §1

[5] = test system: S. aureus (MRSA) -389; experiment: as above; format: cell-based; settings: Staphylococcus aureus, strain -389 (PRC series), read-out: Anti-bacterial activity against MRSA MIC
Description: as §1

[6] = test system: S. aureus (MRSA) PRC-376; experiment: as above; format: cell-based; settings: Staphylococcus aureus, strain PRC-376, read-out: Anti-bacterial activity against MRSA MIC
Description: as §1

[7] = test system: S. aureus (MRSA) -385; experiment: as above; format: cell-based; settings: Staphylococcus aureus, strain -385 (PRC series), read-out: Anti-bacterial activity against MRSA MIC
Description: as §1

[8] = test system: methicillin (DMPPC) resistant Staphylococcus aureus TY-5548; experiment: Anti-bacterial activity test 2: viable cell count on processed cotton cloth; format: cell-based; settings: stated for the test as a whole (TY-5548 and TY-5552)
Description: A cotton cloth was subjected to anti-bacterial processing with the compound of the general formula (I). The processing was carried out by applying a solution containing 0.05% of the compound of the general formula (I) and 1% of an organic silicone (fiber finish, Miki Riken) on the cotton cloth with the padding method. A cotton cloth (30 cm x 40 cm) was padded so that the pick-up was 70%, dried with hot air at 110°C for 3 minutes and further cured at 170°C for 1 minute. The anti-bacterial effect of the cotton cloth subjected to the anti-bacterial processing was evaluated with methicillin (DMPPC) resistant Staphylococcus aureus by the following method. The strains were selected on the basis of their resistances, and TY-5548 was selected as a higher resistant strain and TY-5552 as a lower resistant strain.
A 0.2 g sample of the cotton cloth was weighed, placed in a screw capped 30 ml vial and sterilized under pressure. The test strains had been pre-cultured and diluted with nutrient broth for inoculation to 5 - 30 x 10⁵ cells/ml. This culture medium was uniformly inoculated at an amount of 200 µl with a micropipette to the sample cloth, which was then incubated in an incubator at 37°C for 18 hours. […] The colonies grown were counted to calculate the viable cells in the sample piece.

[9] = test system: TY-5548, higher resistant bacterium; experiment: Anti-bacterial activity test 5: viable cell count on paint film; format: cell-based, Staphylococcus aureus; settings: paint film with 0.1% of compound
Source text: The compound of the general formula (I) was blended with a paint on the assumption that the paint is used around the medical facilities like in the case of Anti-bacterial activity test 3.
With an oil paint (manufactured by Shinto Toryo) 0.1% of the compound of the general formula (I) was mixed, and an appropriate dilution with thinner was spread over a stainless steel plate having a size of 3 cm x 3 cm and air-dried. The sample on which the film had been formed was sterilized with an alcohol and dried. The sample plate was placed in a glass dish, inoculated with 200 µl of the inoculation medium in Anti-bacterial activity test 3 (TY-5548, higher resistant bacterium) over the surface of the film and incubated at 37°C for 18 hours. After the incubation, 20 ml of a sterile physiological saline buffer was added to the medium to disperse the viable cells into the medium, and then the viable cells on the test piece were calculated in the same manner as in Anti-bacterial activity test 2.

[10] = test system: methicillin resistant Staphylococcus aureus (TY-5548, higher resistant bacterium); experiment: Anti-bacterial activity test 4: propagation under cup with dust adsorbing oil on agar plate; format: cell-based; settings: dust adsorbing oil incorporated with 0.1% of compound; 100 µl in cup; 4°C overnight, then 37°C for 24 hours
Description: Anti-MRSA activity was afforded to a dust adsorbing oil for a dust control mop as described below.
Only non-volatile ingredients were recovered from a dust adsorbing oil for a mop by spraying (manufactured by Yamazaki Sangyo), and incorporated with 0.1% of Compound (V).
A 200 µl of a suspension containing methicillin resistant Staphylococcus aureus (TY-5548, higher resistant bacterium) in a level of 1 x 10⁵ - 10⁴ cells/ml was smeared on a plate count agar, on which stainless steel cups having a diameter of 12 mm were placed to add 100 µl of the oil solution prepared above. The plate thus having inoculated the bacterium was left standing at 4°C overnight and then cultured at 37°C for 24 hours. The propagation of the bacterium under the cup was evaluated.

SMILES | MIC [1] [µg/mL] | MIC [2] [µg/mL] | MIC [3] [µg/mL] | MIC [4] [µg/mL] | MIC [5] [µg/mL] | MIC [6] [µg/mL] | MIC [7] [µg/mL] | cell reducing rate of the inoculated cells [8] [%] | cell reducing rate of the inoculated cells [9] [%] | propagation of the bacterium under the cup [10]
Clc1ccc(C(Cn2ccnc2)OCc2ccccc2Cl)cc1 (centres unmarked) [p-Cl, H, o-Cl, H, 1-[2-(2-chlorobenzyloxy)-2-(4-chlorophenyl)-ethyl]imidazole] | 25 (≈ 72 µM) | 50 (≈ 144 µM) | 25 (≈ 72 µM) | 50 (≈ 144 µM) | 50 (≈ 144 µM) | 50 (≈ 144 µM) | 50 (≈ 144 µM) | – | – | –
Clc1ccc(COC(Cn2ccnc2)c2ccccc2Cl)cc1 (centres unmarked) [o-Cl, H, p-Cl, H, 1-[2-(4-chlorobenzyloxy)-2-(2-chlorophenyl)-ethyl]imidazole] | 12.5 (≈ 36 µM) | 25 (≈ 72 µM) | 12.5 (≈ 36 µM) | 25 (≈ 72 µM) | 25 (≈ 72 µM) | 25 (≈ 72 µM) | 25 (≈ 72 µM) | ≥ 99.9 | ≥ 99.9 | no propagation was observed

Second part, led by results:

MIC [1] [µg/mL] | MIC [2] [µg/mL] | MIC [3] [µg/mL] | MIC [4] [µg/mL] | MIC [5] [µg/mL] | MIC [6] [µg/mL] | MIC [7] [µg/mL] | SMILES | cell reducing rate of the inoculated cells [8] [%] | cell reducing rate of the inoculated cells [9] [%] | propagation of the bacterium under the cup [10]
50 (≈ 160 µM) | 100 (≈ 320 µM) | 50 (≈ 160 µM) | 100 (≈ 320 µM) | 100 (≈ 320 µM) | 100 (≈ 320 µM) | 100 (≈ 320 µM) | Clc1ccccc1C(Cn1ccnc1)OCc1ccccc1 (centres unmarked) [o-Cl, H, H, H, 1-[2-benzyloxy-2-(2-chlorophenyl)-ethyl]imidazole] | – | – | –
25 (≈ 72 µM) | 25 (≈ 72 µM) | 25 (≈ 72 µM) | 25 (≈ 72 µM) | 50 (≈ 144 µM) | 25 (≈ 72 µM) | 25 (≈ 72 µM) | Clc1ccccc1COC(Cn1ccnc1)c1ccccc1Cl (centres unmarked) [o-Cl, H, o-Cl, H, 1-[2-(2-chlorobenzyloxy)-2-(2-chlorophenyl)-ethyl]imidazole] | – | – | –
25 (≈ 72 µM) | 50 (≈ 144 µM) | 25 (≈ 72 µM) | 50 (≈ 144 µM) | 50 (≈ 144 µM) | 50 (≈ 144 µM) | 50 (≈ 144 µM) | Clc1ccc(COC(Cn2ccnc2)c2ccc(Cl)cc2)cc1 (centres unmarked) [p-Cl, H, p-Cl, H, 1-[2-(4-chlorobenzyloxy)-2-(4-chlorophenyl)-ethyl]imidazole] | – | – | –
